From PMC6156508, “GA-Hecate antiviral properties on HCV whole cycle represent a new antiviral class and open the door for the development of broad spectrum antivirals” (Scientific Reports, 2018) come the findings set out here.

Where a SMILES comes first, the peptide text is derived from it. The star is where a group is joined. Galloyl = O=C(c1cc(O)c(O)c(O)c1)*

The test system of data set [1] is J6/JFH-1-infected Huh-7.5 cells. The experiment in a line: Necrosis analysis (propidium iodide staining). Format: cell-based, human. As to the method: Apoptosis and Necrosis analysis
The ability of GA-Hecate inducing cell death by necrosis and apoptosis was assessed in 48 and 72h post-treatment (p.t) at concentrations: 1.25; 2.5; 5; 10; 20 and 40 μM. For necrosis evaluation, cells were stained using Propidium Iodide at […], which was incubated with the cells 15 minutes prior fixation. Subsequently, cells were fixed using paraformaldehyde 4% in PBS (PFA 4%) for 15 minutes and nuclei stained using DAPI 1 μg/mL for 5 minutes. For apoptosis evaluation, cells were fixed using PFA 4% during 15 minutes, permeabilized using Triton X- 100 (Sigma) 0.1% in PBS and stained using anti-Active Caspase 3 antibody (host: Rabbit) (1:200 in BSA 1% in PBS) (Abcam 13847) for 2h. Then cells were rinsed using PBS and stained using anti-rabbit AlexaFluor 594 (1:500 in BSA 1% PBS) (Thermo Scientific A21207) during 2h. Nuclei were stained using DAPI for 5 minutes. For both assays, cells were counted in 5 randomly chosen fields in duplicate. […]
Figure S2. Cell death mechanisms triggered by GA-Hecate 48h post-treatment in […]
J6/JFH-1- infected Huh-7.5 cells. […]
B) Necrosis assessment.
Necrotic cells were stained using Propidium iodide […], which is able to cross only damaged membranes and reaches the nucleus. PI is represented in red and cell nuclei were counterstained using DAPI (blue). Bars represents the average of 5 fields in duplicate. Ns: non statistically significant. *** Pvalue< 0.001vs 0.00 µM […]
Figure S3. Cell death mechanisms triggered by GA-Hecate 72h post-treatment in […]

Data set [2] in a line: Permeabilization of LUVs, carboxyfluorescein release (lipid droplet mimetic). The note with it: POPC:Cholesterol 9:1. The text has this: (§1) Figure 8 Permeabilization of LUVs. (A) Percentage of carboxyfluorescein release in POPC:POPS (9:1) Post addition of LUVs at different concentrations of Hecate and GA-Hecate. (B) Percentage of carboxyfluorescein release results in POPC:Cholesterol (9:1) LUVs after the addition of different concentrations of Hecate and GA-Hecate. The bars indicate SD.
(§2) Phosphatidylcholine:Cholesterol (POPC:Cholesterol - 9:1; m:m) and phosphatidylcholine:phosphatidylserine (POPC:POPS - 9:1; m:m) vesicles, which mimic lipid droplets and the virus envelope, respectively, were prepared at a concentration of 15 mmol·L^−1. Each mixture was submitted to lipid solubilization in chloroform/methanol (4:1; v:v) and subsequent evaporation by nitrogen gas flow, resulting in the formation of a lipid film. The product evaporated using a vacuum procedure for complete removal of the solvents and then a solution containing the fluorophore carboxyfluorescein (CF; 50 mM) was added. The mixture was warmed up to 60 °C, sonicated and agitated for equal periods for 10 min to allow for the formation of vesicles encapsulated with CF. Following this, the mixture was processed in an extruder machine (Avanti Polar Lipids) to obtain large unilamellar vesicles. The obtained solution was then applied to a size exclusion column with Sephadex G20 resin for separation of the unencapsulated CF. […]

Data set [3] can be described thus: Permeabilization of LUVs, carboxyfluorescein release (viral envelope/cell membrane mimetic). The note with it: POPC:POPS 9:1.
Source text: as §1, §2

Data set [4] concerns HCVcc particles released from treated cells, naïve Huh-7.5 cells. Briefly: Infectivity assay of released particles (focus forming units). It counts as cell-based, hepatitis C virus. As to the method:
Figure 6 GA-Hecate effect on HCV Release and infectivity. (A) HCV-infected Huh-7.5 cells were treated for 24 h with GA-Hecate. RNA was isolated and summited to qPCR for HCV 5′ UTR. Intracellular HCV expression was normalized by GAPDH, and extracellular HCV expression was calculated by absolute quantification. The difference between the intra and extracellular RNA expression represents the HCV release. Bars represent triplicate samples of three independent assays. Naringenin (200 μM) was used as a positive control of HCV release inhibition and water was a negative control of HCV release inhibition. ^aP < 0.001 vs Control (−), intracellular. ^bP < 0.001 vs Control (−), extracellular. F = 22.58, df (row factor) = 4. (B) Infectivity. HCV-infected Huh-7.5 cells were treated for 24 h with GA-Hecate, and then the supernatant was collected and used to infect naïve Huh-7.5 cells. The capacity of HCVcc particles to generate a new infection after GA-Hecate treatment is represented by the bars. […]
To assess the effect of GA-Hecate on HCV virion infectivity, a similar process to release/assembly was done and the supernatant (extracellular content) was collected and used to infect naïve Huh-7.5 cells. HCV infectivity was evaluated by the focus forming units assay, following an indirect immunofluorescence (IFI) assay for HCV NS5A as previously described by Batista et al.[35].

Where [5] appears, read: peptide 0.1 μM, 1% Triton = 100%, once in triplicate.

As to `CC(C)C[C@H](NC(=O)[C@H](C)NC(=O)[C@H](CCCCN)NC(=O)[C@H](CCCCN)NC(=O)[C@H](CC(C)C)NC(=O)[C@H](C)NC(=O)[C@H](CCCCN)NC(=O)[C@H](CCCCN)NC(=O)[C@H](CC(C)C)NC(=O)[C@H](CCCCN)NC(=O)[C@H](CCCCN)NC(=O)[C@H](CC(C)C)NC(=O)[C@H](C)NC(=O)[C@H](CCCCN)NC(=O)[C@H](CCCCN)NC(=O)[C@H](CC(C)C)NC(=O)[C@H](C)NC(=O)[C@H](CCCCN)NC(=O)[C@H](CC(C)C)NC(=O)[C@H](C)NC(=O)[C@H](CC(C)C)NC(=O)[C@H](C)NC(=O)[C@H](Cc1ccccc1)NC(=O)c1cc(O)c(O)c(O)c1)C(N)=O` [GA-Hecate] (Galloyl-FALALKALKKALKKLKKALKKAL-NH2), the necrosis entry in data set [1] (20 μM, over the time (48 and 72 h)) is reported as “about 20%”; in data set [1] (40 μM, 48h p.t., propidium iodide), 50%; in data set [1] (40 μM, 72h p.t., propidium iodide), 10%. Besides, the “permeabilization effect relative to Hecate (fold higher)” value in data set [2] was “approximately 2 fold”. Moreover, the “permeabilization of LUVs (carboxyfluorescein release)” value is reported as “approximately 70%” in data set [2] (setting [5]) and ~20% in data set [3] (setting [5]). The “interaction capacity relative to Hecate (fold lower)” value in data set [3] is on record as 2- to 3 fold. Also, the “infection inhibition by released particles (infectivity)” value in data set [4] (20 μM, supernatant of cells treated 24 h on naïve Huh-7.5) is reported as “approximately 100%”. Moreover, in data set [4] (supernatant of GA-Hecate-treated cells), the “share of released HCV able to generate a new infection” value is recorded as “less than 1%”.
